Patent US8569302B2, “Inhibitors of flaviviridae viruses” (Gilead Sciences, Inc., priority 2009, dated 2013)

system: human hepatoma Huh-7 cell line harboring a HCV replicon; assay: HCV replicon assay (inhibition of viral replication, luciferase readout); assay type: cell-based; conditions: Hepatitis C virus, 72 h, Huh-7 HCV replicon cells, 3 days incubation
Outline: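 Huh-7 replicon cells were exposed to 10-point 3-fold compound dilutions (0.44% DMSO) for 3 days at 37 °C. Replicon replication was read by Dual-Glo luciferase, with background from protease-inhibitor wells subtracted, and viability by calcein AM. EC50/CC50 came from a Hill-equation fit versus DMSO controls.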

Going from `CC1CCC(C(=O)N(c2cc(C#CC(C)(C)C)sc2C(=O)O)[C@H]2CC[C@H](Oc3cnccc3CN3CCC(N(C)C)C3)CC2)CC1` (stereo partly drawn) [Compound 195, 3-[[-4-(3-dimethylamino-pyrrolidin-1-ylmethyl-pyridin-3-yloxy)-cyclohexyl]-(4-methyl-cyclohexanecarbonyl)-amino]-5-(3,3-dimethyl-but-1-ynyl)-thiophene-2-carboxylic acid] to `CC1CCC(C(=O)N(c2cc(C#CC(C)(C)C)sc2C(=O)O)[C@H]2CC[C@H](Oc3cnccc3CN3CCC3)CC2)CC1` (stereo partly drawn) [Compound 197, 3-[[-4-(4-azetidin-1-ylmethyl-pyridin-3-yloxy)-cyclohexyl]-(4-methyl-cyclohexanecarbonyl)-amino]-5-(3,3-dimethyl-but-1-ynyl)-thiophene-2-carboxylic acid], the inhibition at 2 µM rises from 99.7% to 99.9%.

Compared with `CC1CCC(C(=O)N(c2cc(C#CC(C)(C)C)sc2C(=O)O)[C@H]2CC[C@H](Oc3cnccc3CN3CCCC3)CC2)CC1` (stereo partly drawn) [Compound 196, 3-[[-4-(4-pyrrolidin-1-ylmethyl-pyridin-3-yloxy)-cyclohexyl]-(4-methyl-cyclohexanecarbonyl)-amino]-5-(3,3-dimethyl-but-1-ynyl)-thiophene-2-carboxylic acid], `CC1CCC(C(=O)N(c2cc(C#CC(C)(C)C)sc2C(=O)O)[C@H]2CC[C@H](Oc3ccnc(CN4CCCC4)c3)CC2)CC1` (stereo partly drawn) [Compound 199, 3-[[-4-(2-pyrrolidin-1-ylmethyl-pyridin-4-yloxy)-cyclohexyl]-(4-methyl-cyclohexanecarbonyl)-amino]-5-(3,3-dimethyl-but-1-ynyl)-thiophene-2-carboxylic acid] is lower in inhibition at 2 µM: 100% for the first, 99.9% for the second.

Compared with `CC1CCC(C(=O)N(c2cc(C#CC(C)(C)C)sc2C(=O)O)[C@H]2CC[C@H](Oc3cnccc3CN(C)C)CC2)CC1` (stereo partly drawn) [Compound 198, 3-[[-4-(4-dimethylaminomethyl-pyridin-3-yloxy)-cyclohexyl]-(4-methyl-cyclohexanecarbonyl)-amino]-5-(3,3-dimethyl-but-1-ynyl)-thiophene-2-carboxylic acid], `CC1CCC(C(=O)N(c2cc(C#CC(C)(C)C)sc2C(=O)O)[C@H]2CC[C@H](Oc3ccnc(CN(C)C)c3)CC2)CC1` (stereo partly drawn) [Compound 200, 3-[[-4-(2-dimethylaminomethyl-pyridin-4-yloxy)-cyclohexyl]-(4-methyl-cyclohexanecarbonyl)-amino]-5-(3,3-dimethyl-but-1-ynyl)-thiophene-2-carboxylic acid] is higher in inhibition at 2 µM: 99.9% for the first, 100% for the second.

`Cn1cnc(S(=O)(=O)N2CCC(N(c3cc(C#CC(C)(C)C)sc3C(=O)O)C(=O)[C@H]3CC[C@H](C)CC3)CC2)c1` [Compound 201, 5-(3,3-Dimethyl-but-1-ynyl)-3-{(4-methyl-cyclohexanecarbonyl)-[1-(1-methyl-1′-1-imidazole-4-sulfonyl)-piperidin-4-yl]-amino}-thiophene-2-carboxylic acid] and `Cc1nc(S(=O)(=O)N2CCC(N(c3cc(C#CC(C)(C)C)sc3C(=O)O)C(=O)[C@H]3CC[C@H](C)CC3)CC2)cn1C` [Compound 206, 5-(3,3-Dimethyl-but-1-ynyl)-3-[[1-(1,2-dimethyl-1H-imidazole-4-sulfonyl)-piperidin-4-yl]-(4-methyl-cyclohexanecarbonyl)-amino]-thiophene-2-carboxylic acid] are the same in inhibition at 2 µM: 100% for the first, 100% for the second.

First: CC(C)(C)C#Cc1cc(N(C(=O)[C@H]2CC[C@H](C)CC2)C2CCN(S(=O)(=O)c3nnc[nH]3)CC2)c(C(=O)O)s1 [Compound 202, 5-(3,3-Dimethyl-but-1-ynyl)-3-{(4-methyl-cyclohexanecarbonyl)-[1-(4H-[1,2,4]triazole-3-sulfonyl)-piperidin-4-yl]-amino}-thiophene-2-carboxylic acid]
Second: CC(C)(C)C#Cc1cc(N(C(=O)[C@H]2CC[C@H](C)CC2)C2CCN(S(=O)(=O)c3cnc(=O)[nH]c3)CC2)c(C(=O)O)s1 [Compound 208, 5-(3,3-Dimethyl-but-1-ynyl)-3-{(4-methyl-cyclohexanecarbonyl)-[1-(2-oxo-1,2-dihydro-pyrimidine-5-sulfonyl)-piperidin-4-yl]-amino}-thiophene-2-carboxylic acid]
The inhibition at 2 µM of the first is higher: 96.4% for the first, 63.8% for the second.

First: Cn1nccc1S(=O)(=O)N1CCC(N(c2cc(C#CC(C)(C)C)sc2C(=O)O)C(=O)[C@H]2CC[C@H](C)CC2)CC1 [Compound 203, 5-(3,3-Dimethyl-but-1-ynyl)-3-{(4-methyl-cyclohexanecarbonyl)-[1-(2-methyl-2H-pyrazole-3-sulfonyl)-piperidin-4-yl]-amino}-thiophene-2-carboxylic acid]
Second: CC(C)(C)C#Cc1cc(N(C(=O)[C@H]2CC[C@H](C)CC2)C2CCN(S(=O)(=O)c3ccccn3)CC2)c(C(=O)O)s1 [Compound 209, 5-(3,3-Dimethyl-but-1-ynyl)-3-{(4-methyl-cyclohexanecarbonyl)-[1-(pyridine-2-sulfonyl)-piperidin-4-yl]-amino}-thiophene-2-carboxylic acid]
The inhibition at 2 µM of the first is lower: 99.8% for the first, 100% for the second.

Going from `CN(C)c1ncc(S(=O)(=O)N2CCC(N(c3cc(C#CC(C)(C)C)sc3C(=O)O)C(=O)[C@H]3CC[C@H](C)CC3)CC2)cn1` [Compound 204, 3-[[1-(2-Dimethylamino-pyrimidine-5-sulfonyl)-piperidin-4-yl]-(4-methyl-cyclohexanecarbonyl)-amino]-5-(3,3-dimethyl-but-1-ynyl)-thiophene-2-carboxylic acid] to `CC(C)(C)C#Cc1cc(N(C(=O)[C@H]2CC[C@H](C)CC2)C2CCN(S(=O)(=O)c3cccnc3)CC2)c(C(=O)O)s1` [Compound 210, 5-(3,3-Dimethyl-but-1-ynyl)-3-{(4-methyl-cyclohexanecarbonyl)-[1-(pyridine-3-sulfonyl)-piperidin-4-yl]-amino}-thiophene-2-carboxylic acid], the inhibition at 2 µM rises from 99.1% to 100%.

First: CC(C)(C)C#Cc1cc(N(C(=O)[C@H]2CC[C@H](C)CC2)C2CCN(S(=O)(=O)c3ccsc3)CC2)c(C(=O)O)s1 [Compound 205, 5-(3,3-Dimethyl-but-1-ynyl)-3-{(4-methyl-cyclohexanecarbonyl)-[1-(thiophene-3-sulfonyl)-piperidin-4-yl]-amino}-thiophene-2-carboxylic acid]
Second: CC(C)(C)C#Cc1cc(N(C(=O)[C@H]2CC[C@H](C)CC2)[C@H]2CCN(S(=O)(=O)c3ccsc3)C2)c(C(=O)O)s1 [Compound 211, 5-(3,3-Dimethyl-but-1-ynyl)-3-{(4-methyl-cyclohexanecarbonyl)-[1-(thiophene-3-sulfonyl)-pyrrolidin-3-yl]-amino}-thiophene-2-carboxylic acid]
The inhibition at 2 µM of the first is higher: 99.9% for the first, 99.7% for the second.

Compared with `CC(C)(C)C#Cc1cc(N(C(=O)[C@H]2CC[C@H](C)CC2)C2CCN(S(=O)(=O)c3cccs3)CC2)c(C(=O)O)s1` [Compound 207, 5-(3,3-Dimethyl-but-1-ynyl)-3-{(4-methyl-cyclohexanecarbonyl)-[1-(thiophene-2-sulfonyl)-piperidin-4-yl]-amino}-thiophene-2-carboxylic acid], `Cc1nc(S(=O)(=O)N2CC[C@H](N(c3cc(C#CC(C)(C)C)sc3C(=O)O)C(=O)[C@H]3CC[C@H](C)CC3)C2)cn1C` [Compound 212, 5-(3,3-Dimethyl-but-1-ynyl)-3-[[1-(1,2-dimethyl-1H-imidazole-4-sulfonyl)-pyrrolidin-3-yl]-(4-methyl-cyclohexanecarbonyl)-amino]-thiophene-2-carboxylic acid] is lower in inhibition at 2 µM: 99.8% for the first, 99.3% for the second.
